ChEMBL document CHEMBL1131422, “N-(2-Benzoylphenyl)-L-tyrosine PPARgamma agonists. 1. Discovery of a novel series of potent antihyperglycemic and antihyperlipidemic agents” (J Med Chem, 1998)
The source made the active and inactive calls. The calls are words filed in the database; no cut-off is given here.

Target: T1, Peroxisome proliferator-activated receptor gamma (Homo sapiens, UniProt P37231)
T1 sequence (P37231 whole entry): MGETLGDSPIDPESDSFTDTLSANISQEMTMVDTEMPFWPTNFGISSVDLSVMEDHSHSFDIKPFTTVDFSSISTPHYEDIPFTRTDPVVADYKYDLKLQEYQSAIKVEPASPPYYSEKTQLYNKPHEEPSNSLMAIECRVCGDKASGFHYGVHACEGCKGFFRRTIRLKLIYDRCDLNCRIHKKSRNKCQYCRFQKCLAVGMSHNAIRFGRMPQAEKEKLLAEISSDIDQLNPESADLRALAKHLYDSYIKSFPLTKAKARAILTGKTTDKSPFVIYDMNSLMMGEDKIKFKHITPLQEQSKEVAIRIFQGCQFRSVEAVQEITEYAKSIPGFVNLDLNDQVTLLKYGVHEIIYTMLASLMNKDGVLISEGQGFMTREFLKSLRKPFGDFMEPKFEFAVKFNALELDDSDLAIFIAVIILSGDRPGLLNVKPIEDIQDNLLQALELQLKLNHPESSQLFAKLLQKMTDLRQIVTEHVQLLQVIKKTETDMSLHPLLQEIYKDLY
Details: not given

Compared with `Cc1oc(-c2ccccc2)nc1CCOc1ccc(CC2SC(=O)NC2=O)cc1` (stereo not drawn), `CN(CCOc1ccc(CC(Nc2cccc3c2C(=O)c2ccccc2C3=O)C(=O)O)cc1)c1nc2ccccc2o1` (stereo not drawn) is 1.6-fold higher in EC50: 3.16 nM for the first, 5.01 nM for the second.

Going from `O=C(c1ccccc1)c1ccccc1N[C@@H](Cc1ccc(OCc2ccccc2)cc1)C(=O)O` to `CCc1ccc(CCOc2ccc(C[C@H](Nc3ccccc3C(=O)c3ccccc3)C(=O)O)cc2)nc1`, the EC50 falls from 16600 nM to 50.1 nM (330-fold). The second is the more potent here.

Compared with `CN(CCOc1ccc(CC(Nc2ccccc2C(O)c2ccccc2)C(=O)O)cc1)c1ccccn1` (stereo not drawn), `CN(CCOc1ccc(CC(Nc2ccccc2/C(=N/N)c2ccccc2)C(=O)O)cc1)c1ccccn1` (stereo not drawn) is 1.9-fold higher in EC50: 447 nM for the first, 851 nM for the second. The first is the more potent here.

Going from `CC(/C=C(\O)c1ccccc1)=N\[C@@H](Cc1ccc(OCc2ccccc2)cc1)C(=O)O` (stereo in doubt; 2) to `COC(=O)[C@H](Cc1ccc(OCc2ccccc2)cc1)/N=C(C)/C=C(\O)c1ccccc1`, the EC50 rises from 229 nM to 692 nM (3-fold). The first is the more potent here.

`CN(CCOc1ccc(CC(Sc2ccccc2C(=O)c2ccccc2)C(=O)O)cc1)c1nc2ccccc2o1` (stereo not drawn) and `CN(CCOc1ccc(CC(Oc2ccccc2C(=O)c2ccccc2)C(=O)O)cc1)c1nc2ccccc2o1` (stereo not drawn) are within 1.5-fold of each other in EC50: 1380 nM for the first, 933 nM for the second.

Going from `CC(/C=C(\O)c1ccccc1)=N\[C@@H](Cc1ccc(OCc2ccccc2)cc1)C(=O)O` (stereo in doubt) to `O=C(O)[C@H](Cc1ccc(OCc2ccccc2)cc1)/N=C1\CCCC\C1=C(\O)c1ccccc1`, the EC50 falls from 21900 nM to 10200 nM (2.1-fold).

Going from `Cc1c(C)c2c(c(C)c1O)CCC(C)(COc1ccc(C[C@H](Nc3ccccc3C(=O)c3ccccc3)C(=O)O)cc1)O2` (stereo partly drawn) to `CC1(COc2ccc(C[C@H](Nc3ccccc3C(=O)c3ccccc3)C(=O)O)cc2)CCCCC1`, the EC50 rises from 9.12 nM to 617 nM (68-fold).

Target: T1, Peroxisome proliferator-activated receptor gamma
Details: not given
Remark: another data set of the same source

`Cc1oc(-c2ccccc2)nc1CCOc1ccc(CC2SC(=O)NC2=O)cc1` (stereo not drawn) and `CN(CCOc1ccc(CC(Nc2cccc3c2C(=O)c2ccccc2C3=O)C(=O)O)cc1)c1nc2ccccc2o1` (stereo not drawn) are within 1.5-fold of each other in Ki: 4.27 nM for the first, 5.13 nM for the second.

First: O=C(c1ccccc1)c1ccccc1N[C@@H](Cc1ccc(OCc2ccccc2)cc1)C(=O)O
Second: CCc1ccc(CCOc2ccc(C[C@H](Nc3ccccc3C(=O)c3ccccc3)C(=O)O)cc2)nc1
The Ki of the first is 25-fold higher: 162 nM for the first, 6.46 nM for the second.

First: CC(/C=C(\O)c1ccccc1)=N\[C@@H](Cc1ccc(OCc2ccccc2)cc1)C(=O)O (stereo in doubt; 2)
Second: COC(=O)[C@H](Cc1ccc(OCc2ccccc2)cc1)/N=C(C)/C=C(\O)c1ccccc1
The Ki of the first is 65-fold lower: 11.7 nM for the first, 759 nM for the second.

`CN(CCOc1ccc(CC(Sc2ccccc2C(=O)c2ccccc2)C(=O)O)cc1)c1nc2ccccc2o1` (stereo not drawn) and `CN(CCOc1ccc(CC(Oc2ccccc2C(=O)c2ccccc2)C(=O)O)cc1)c1nc2ccccc2o1` (stereo not drawn) are within 1.5-fold of each other in Ki: 33.1 nM for the first, 32.4 nM for the second.

First: CC(/C=C(\O)c1ccccc1)=N\[C@@H](Cc1ccc(OCc2ccccc2)cc1)C(=O)O (stereo in doubt)
Second: O=C(O)[C@H](Cc1ccc(OCc2ccccc2)cc1)/N=C1\CCCC\C1=C(\O)c1ccccc1
The Ki of the first is higher: over 3160 nM for the first, 794 nM for the second. The second binds more tightly here.

Going from `Cc1c(C)c2c(c(C)c1O)CCC(C)(COc1ccc(C[C@H](Nc3ccccc3C(=O)c3ccccc3)C(=O)O)cc1)O2` (stereo partly drawn) to `CC1(COc2ccc(C[C@H](Nc3ccccc3C(=O)c3ccccc3)C(=O)O)cc2)CCCCC1`, the Ki rises from 5.25 nM to 51.3 nM (9.8-fold). The first binds more tightly here.

`CN(CCOc1ccc(CC(Nc2ccccc2/C(=N/N)c2ccccc2)C(=O)O)cc1)c1ccccn1` (stereo not drawn) showed a Ki of 162 nM.

Target: T2, Peroxisome proliferator-activated receptor gamma (Homo sapiens) (UniProt P37231)
T2 sequence (whole entry): T1 sequence (P37231 whole entry)
Details: 10e-4 M
Description: Compound was tested for its ability to promote differentiation of C3H10T1/2 stem cells to adipocytes using lipogenesis assay mediated through activation of Peroxisome proliferator activated receptor gamma; IA = Inactive at 10e-4 M

In the case of `CN(CCOc1ccc(CC(Nc2cccc3c2C(=O)c2ccccc2C3=O)C(=O)O)cc1)c1nc2ccccc2o1` (stereo not drawn), the “Log EC50” value is reported as “inactive”.
